Assay results taken from patent publication US9062074B2, “(9E)-15-(2-pyrrolidin-1-yl-ethoxy)-7,12,25-trioxa-19,21,24-triaza-tetracyclo[18.3.1.1(2.5).1(14,18)]hexacosa-1(24),2,4,9,14,16,18(26),20,22-nonaene citrate salt” (CTI BioPharma Corp., priority 2009, dated 2015).
Read-outs that look alike come from different tables or passages of the source.

Assays:
Assay type in all cases: physicochemical
[1] = Solubility assessment (solvent added in 10 volume aliquots); details: organic solvent or mixture, thermodynamic from solid, read-out: Solubility assessment observation
Method: For each solvent investigated, approximately 8 mg of compound 1 was weighed into an 8 ml screw top glass vial. The solvent was added in 10 volume aliquots and the mixture sonicated and warmed (with a hot-air gun) to encourage dissolution. If dissolution was not achieved after the addition of 100 volumes of solvent, a further 100 volumes was added.

[2] = Phase stability by XRPD after storage at 40° C. and 75% relative humidity for one week; details: solid form by low resolution XRPD after one week
Method: Condition 2 (Low Resolution)
X-Ray Powder Diffraction patterns were also collected on a Bruker D8 diffractometer using Cu K[…] radiation (40 kV, 40 mA), θ-2θ goniometer, and divergence of V4 and receiving slits, a Ge monochromator and a Lynxeye detector. The instrument is performance checked using a certified Corundum standard (NIST 1976). The software used for data collection was Diffrac Plus XRD Commander v2.5.0 and the data were analysed and presented using Diffrac Plus EVA v 11.0.0.2 or v 13.0.0.2. Samples were run under ambient conditions as flat plate specimens using powder as received. Approximately 15 mg of the sample was gently packed into a cavity cut into polished, zerobackground (510) silicon wafer. The sample was rotated in its own plane during analysis. The details of the data collection are:
The samples which had been prepared for the collection of low resolution XRPD traces were placed in a chamber maintained at 40° C. and 75% relative humidity. After one week the samples were reanalysed by low resolution XRPD (Condition 2), to check for phase changes. It can be seen that no phase change has occurred, and that citrate salts of the invention are stable for at least one week under these conditions.

[3] = Thermogravimetric Analysis (TGA)
Method: Thermogravimetric Analysis (TGA) data were collected on a Mettler TGA/SDTA 851e equipped with a 34 position autosampler. The instrument was temperature calibrated using certified indium. Typically 5-30 mg of each sample was loaded onto a pre-weighed aluminium crucible and was heated at 10° C.min^−1 from ambient temperature to 350° C. A nitrogen purge at 50 ml.min^−1 was maintained over the sample. The instrument control and data analysis software was STARe v9.10.

[4] = Differential Scanning Calorimetry (DSC); details: from DSC endotherm shape and TGA weight loss
Method: Differential Scanning Calorimetry (DSC) data were collected on a Mettler DSC 823e equipped with a 34 position auto-sampler. The instrument was calibrated for energy and temperature using certified indium. Typically 0.5-3 mg of each sample, in a pin-holed aluminium pan, was heated at 10° C.min^−1 from 25° C. to 350° C. A nitrogen purge at 50 ml.min^−1 was maintained over the sample. The instrument control and data analysis software was STARe v9.10.

## C1=C2COC/C=C/COCc3cc(ccc3OCCN3CCCC3)Nc3nccc(n3)C(=C1)O2 [Batch 4]
[1]; TBME, TBME, 10 vols
  solubility: < 100 mg/mL
[1]; TBME, TBME, 20 vols
  solubility: < 50 mg/mL
[1]; TBME, TBME, 30 vols
  solubility: < 33.3 mg/mL
[1]; TBME, TBME, 40 vols
  solubility: < 25 mg/mL
[1]; TBME, TBME, 50 vols
  solubility: < 20 mg/mL
[1]; TBME, TBME, 60 vols
  solubility: < 16.7 mg/mL
[1]; TBME, TBME, 70 vols
  solubility: < 14.3 mg/mL
[1]; TBME, TBME, 80 vols
  solubility: < 12.5 mg/mL
[1]; TBME, TBME, 90 vols
  solubility: < 11.1 mg/mL
[1]; TBME, TBME, 100 vols
  solubility: < 10 mg/mL
[1]; TBME, TBME, 200 vols
  solubility: < 5 mg/mL
[1]; ethyl acetate, Ethyl acetate, 10 vols
  solubility: < 100 mg/mL
[1]; ethyl acetate, Ethyl acetate, 20 vols
  solubility: < 50 mg/mL
[1]; ethyl acetate, Ethyl acetate, 30 vols
  solubility: < 33.3 mg/mL
[1]; ethyl acetate, Ethyl acetate, 40 vols
  solubility: < 25 mg/mL
[1]; ethyl acetate, Ethyl acetate, 50 vols
  solubility: < 20 mg/mL
[1]; ethyl acetate, Ethyl acetate, 60 vols
  solubility: < 16.7 mg/mL
[1]; ethyl acetate, Ethyl acetate, 70 vols
  solubility: < 14.3 mg/mL
[1]; ethyl acetate, Ethyl acetate, 80 vols
  solubility: < 12.5 mg/mL
[1]; ethyl acetate, Ethyl acetate, 90 vols
  solubility: < 11.1 mg/mL
[1]; ethyl acetate, Ethyl acetate, 100 vols
  solubility: < 10 mg/mL
[1]; ethyl acetate, Ethyl acetate, 200 vols
  solubility: < 5 mg/mL
[1]; i-propyl acetate, i-propyl acetate, 10 vols
  solubility: < 100 mg/mL
[1]; i-propyl acetate, i-propyl acetate, 20 vols
  solubility: < 50 mg/mL
[1]; i-propyl acetate, i-propyl acetate, 40 vols
  solubility: < 25 mg/mL
[1]; i-propyl acetate, i-propyl acetate, 60 vols
  solubility: < 16.7 mg/mL
[1]; i-propyl acetate, i-propyl acetate, 80 vols
  solubility: < 12.5 mg/mL
[1]; i-propyl acetate, i-propyl acetate, 100 vols
  solubility: < 10 mg/mL
[1]; i-propyl acetate, i-propyl acetate, 200 vols
  solubility: < 5 mg/mL
[1]; toluene, Toluene, 10 vols
  solubility: < 100 mg/mL
[1]; toluene, Toluene, 20 vols
  solubility: < 50 mg/mL
[1]; toluene, Toluene, 30 vols
  solubility: < 33.3 mg/mL
[1]; toluene, Toluene, 40 vols
  solubility: < 25 mg/mL
[1]; toluene, Toluene, 50 vols
  solubility: < 20 mg/mL
[1]; toluene, Toluene, 60 vols
  solubility: < 16.7 mg/mL
[1]; toluene, Toluene, 70 vols
  solubility: < 14.3 mg/mL
[1]; toluene, Toluene, 80 vols
  solubility: < 12.5 mg/mL
[1]; toluene, Toluene, 90 vols
  solubility: < 11.1 mg/mL
[1]; toluene, Toluene, 100 vols
  solubility: < 10 mg/mL
[1]; toluene, Toluene, 200 vols
  solubility: < 5 mg/mL
[2]
  Phase Stability 1 wk @ 40° C./75% RH: Crystalline Form 1
[3]; 160 to 250° C.
  Thermogravimetric Analysis weight change: −20% w/w 160 to 250 °C
[3]; ambient to 160° C.
  Thermogravimetric Analysis weight change: −0.4% w/w ambient to
[3]; at thermal event at 176° C.
  weight loss in TGA corresponding to DSC thermal event: ~20%
[4]
  temperature above which gross degradation is occurring: > 176 °C
